Laboratory results taken from patent publication US12195476B2, “Synthesis method of furoimidazopyridine compound, crystal form of furoimidazopyridine compound, and crystal form of salt thereof” (HANGZHOU HIGHLIGHTLL PHARMACEUTICAL CO., LTD, priority 2019, dated 2025).
In brackets after ≈: the same amount, converted by molar mass. Counter-ions that a name gives are not always drawn. Like-named read-outs stand apart in the source and are kept apart here.

How the values were obtained:
Type in all cases: physicochemical
[1] = Solubility test in water, SGF, FaSSIF and FeSSIF (37° C., HPLC); conditions: for solubility at 30 min / solubility at 2 h / solubility at 4 h / solubility at 24 h: 37 °C, thermodynamic from solid, read-out: Solubility (based on a compound of formula I); for solubility at 30 min / solubility at 2 h / solubility at 4 h / solubility at 24 h / Solubility (based on a compound of formula I): 37° C.; for difference in the equilibrium solubilities (24 h) between crystal form 1 and crystal form D: FaSSIF and FeSSIF, result in words
Experimental: 4 samples, each of crystal form 1 of a compound of formula I and crystal form D of a phosphate of a compound of formula I each with appropriate amount were weighed and placed into a 4 mL transparent glass bottle respectively, 1 mL of water, simulated gastric fluid (SGF), fasted-state simulated intestinal fluid (FaSSIF) and fed-state simulated intestinal fluid (FeSSIF) were added respectively, sample suspension was obtained and quickly placed on a shaker (37° C., 200 rpm) and the shaker was shaked, the samples were observed 5 minutes later, a quantity of samples or medium were supplemented to obtain mild suspension, samples were taken at 30 minutes, 2 hours, 4 hours and 24 hours, respectively, centrifuged for 10 minutes at 12000 rpm, the supernatants were collected, diluted appropriately and then were tested by a higher performance liquid chromatography.
The sample concentrations were calculated with an external standard method.

[2] = Dynamic vapor sorption (DVS) hygroscopicity test; conditions: for Hygroscopicity: weight gain by moisture absorption: 0% RH-95% RH, 25° C.; for change of crystal form before and after the DVS test: result in words
Experimental: (§1) DSC, TGA and DVS tests were conducted for crystal form A of a hydrochloride of a compound of formula I, crystal form B of a sulfate of a compound of formula I, crystal form C of a hydrobromide of a compound of formula I and crystal form D of a phosphate of a compound of formula I.

[3] = Stability test at high temperature and in accelerated conditions (HPLC purity, XRPD, DSC); conditions: for Stability study: Crystal form: 2 weeks (XRPD); for 2-week physical and chemical stabilities: high temperature (60° C.) and accelerated conditions (40° C./75% RH), result in words
Experimental: About 1 mg of crystal form 1 of a compound of formula I and 1 mg of crystal form D of a phosphate of a compound of formula I samples were weighed and each was placed into a 40 mL transparent glass bottle, the samples were placed in a stability chamber in accelerated conditions (40° C./75% RH, open) and at a high temperature (60° C., sealed) respectively. For the open samples, the bottle cap was removed and the bottle neck was covered with aluminium-foil paper stabbed with pinholes to avoid cross contamination; for the closed samples, each bottle was covered with a cap and sealed tightly. Samples were taken at week 1 and week 2, respectively, after diluted with diluent (acetonitrile/water (1/1) (v/v), the liquid phases were injected according to the chromatographic conditions in Table 12 to determine sample purities.
The sample purities were calculated with an area normalization method.

[4] = DSC test of salt crystal forms (thermostability); conditions: single and higher melting points, result in words
Experimental: as §1

C[C@@H](O)c1nc2cnc3ccoc3c2n1[C@H]1CC[C@H](CC#N)OC1 [2-[(2R,5S)-5-[2-[(R)-1-hydroxyethyl]furo[3,2-b]imidazo[4,5-d]pyridin-1-yl]tetrahydropyran-2-yl]acetonitrile]
solubility at 30 min ([1]; fasted-state simulated intestinal fluid (FaSSIF), fassif, Fasted-state simulated intestinal fluid (FaSSIF), 30 min): 170 µg/mL (≈ 521 µM) | solubility at 2 h ([1]; fasted-state simulated intestinal fluid (FaSSIF), fassif, Fasted-state simulated intestinal fluid (FaSSIF), 2 h): 170 µg/mL (≈ 521 µM) | solubility at 4 h ([1]; fasted-state simulated intestinal fluid (FaSSIF), fassif, Fasted-state simulated intestinal fluid (FaSSIF), 4 h): 170 µg/mL (≈ 521 µM) | solubility at 24 h ([1]; fasted-state simulated intestinal fluid (FaSSIF), fassif, Fasted-state simulated intestinal fluid (FaSSIF), 24 h): 160 µg/mL (≈ 490 µM) | solubility at 30 min ([1]; fed-state simulated intestinal fluid (FeSSIF), fessif, Fed-state simulated intestinal fluid (FeSSIF), 30 min): 260 µg/mL (≈ 797 µM) | solubility at 2 h ([1]; fed-state simulated intestinal fluid (FeSSIF), fessif, Fed-state simulated intestinal fluid (FeSSIF), 2 h): 230 µg/mL (≈ 705 µM) | solubility at 4 h ([1]; fed-state simulated intestinal fluid (FeSSIF), fessif, Fed-state simulated intestinal fluid (FeSSIF), 4 h): 220 µg/mL (≈ 674 µM) | solubility at 24 h ([1]; fed-state simulated intestinal fluid (FeSSIF), fessif, Fed-state simulated intestinal fluid (FeSSIF), 24 h): 240 µg/mL (≈ 735 µM) | solubility at 30 min ([1]; simulated gastric fluid (SGF), simulated gastric fluid, Simulated gastric fluid (SGF), 30 min): 30200 µg/mL (≈ 92600 µM) | solubility at 2 h ([1]; simulated gastric fluid (SGF), simulated gastric fluid, Simulated gastric fluid (SGF), 2 h): 29700 µg/mL (≈ 91100 µM) | solubility at 4 h ([1]; simulated gastric fluid (SGF), simulated gastric fluid, Simulated gastric fluid (SGF), 4 h): 29500 µg/mL (≈ 90300 µM) | solubility at 24 h ([1]; simulated gastric fluid (SGF), simulated gastric fluid, Simulated gastric fluid (SGF), 24 h (equilibrium)): 30200 µg/mL (≈ 92500 µM)

C[C@@H](O)c1nc2cnc3ccoc3c2n1[C@H]1CC[C@H](CC#N)OC1 [Crystal form 1 of a compound of formula I] [2-[(2R,5S)-5-[2-[(R)-1-hydroxyethyl]furo[3,2-b]imidazo[4,5-d]pyridin-1-yl]tetrahydropyran-2-yl]acetonitrile]
Hygroscopicity: weight gain by moisture absorption ([2]; DVS): 5.2% | Hygroscopicity: weight gain by moisture absorption ([2]; DVS, listed as crystal form 1 of a compound of formula I): 5.2% | water remaining after desorption ([2]; DVS, desorption 95% RH to 0% RH): 2% | Stability study (purity) ([3]; 0 day): 98.74 Area % | Stability study (purity) ([3]; 40° C./75% RH, open, 1 week): 98.71 Area % | Stability study (purity) ([3]; 40° C./75% RH, open, 2 weeks): 98.77 Area % | Stability study: Crystal form ([3]; 40° C./75% RH, open): Unchanged | Stability study (purity) ([3]; 60° C., sealed, 1 week): 98.73 Area % | Stability study (purity) ([3]; 60° C., sealed, 2 weeks): 98.74 Area % | Stability study: Crystal form ([3]; 60° C., sealed): Unchanged | 2-week physical and chemical stabilities [3]: good | difference in the equilibrium solubilities (24 h) between crystal form 1 and crystal form D [1]: no obvious difference | Solubility (based on a compound of formula I) ([1]; Fasted-state simulated intestinal fluid (FaSSIF), 30 min): 170 µg/mL | Solubility (based on a compound of formula I) ([1]; Fasted-state simulated intestinal fluid (FaSSIF), 2 h, listed as Crytstal form 1 of a compound of formula I): 190 µg/mL | Solubility (based on a compound of formula I) ([1]; Fasted-state simulated intestinal fluid (FaSSIF), 4 h, listed as Crytstal form 1 of a compound of formula I): 160 µg/mL | Solubility (based on a compound of formula I) ([1]; Fasted-state simulated intestinal fluid (FaSSIF), 24 h, listed as Crytstal form 1 of a compound of formula I): 170 µg/mL | Solubility (based on a compound of formula I) ([1]; Simulated gastric fluid (SGF), 30 min, listed as Crytstal form 1 of a compound of formula I): 16520 µg/mL | Solubility (based on a compound of formula I) ([1]; Simulated gastric fluid (SGF), 2 h, listed as Crytstal form 1 of a compound of formula I): 16710 µg/mL | Solubility (based on a compound of formula I) ([1]; Simulated gastric fluid (SGF), 4 h, listed as Crytstal form 1 of a compound of formula I): 16880 µg/mL | Solubility (based on a compound of formula I) ([1]; Simulated gastric fluid (SGF), 24 h (equilibrium), listed as Crytstal form 1 of a compound of formula I): 16420 µg/mL | Solubility (based on a compound of formula I) ([1]; Water, 30 min, listed as Crytstal form 1 of a compound of formula I): 160 µg/mL | Solubility (based on a compound of formula I) ([1]; Water, 2 h, listed as Crytstal form 1 of a compound of formula I): 180 µg/mL | Solubility (based on a compound of formula I) ([1]; Water, 4 h, listed as Crytstal form 1 of a compound of formula I): 160 µg/mL | Solubility (based on a compound of formula I) ([1]; Water, 24 h (equilibrium), listed as Crytstal form 1 of a compound of formula I): 180 µg/mL

C[C@@H](O)c1nc2cnc3ccoc3c2n1[C@H]1CC[C@H](CC#N)OC1 [Crystal form B of a sulfate of a compound of formula I] [2-[(2R,5S)-5-[2-[(R)-1-hydroxyethyl]furo[3,2-b]imidazo[4,5-d]pyridin-1-yl]tetrahydropyran-2-yl]acetonitrile]
Hygroscopicity: weight gain by moisture absorption ([2]; DVS): 9.4% | Hygroscopicity: weight gain by moisture absorption ([2]; DVS, listed as crystal form B of a sulfate of a compound of formula I): 9.4% | change of crystal form before and after the DVS test [2]: no significant changes | thermostability of the crystal form [4]: relatively good

C[C@@H](O)c1nc2cnc3ccoc3c2n1[C@H]1CC[C@H](CC#N)OC1 [Crystal form D of a phosphate of a compound of formula I] [2-[(2R,5S)-5-[2-[(R)-1-hydroxyethyl]furo[3,2-b]imidazo[4,5-d]pyridin-1-yl]tetrahydropyran-2-yl]acetonitrile]
Hygroscopicity: weight gain by moisture absorption ([2]; DVS): 4.7% | Hygroscopicity: weight gain by moisture absorption ([2]; DVS, listed as crystal form D of a phosphate of a compound of formula I): 4.7% | change of crystal form before and after the DVS test [2]: no significant changes | Stability study (purity) ([3]; 0 day): 99.13 Area % | Stability study (purity) ([3]; 40° C./75% RH, open, 1 week): 99.11 Area % | Stability study (purity) ([3]; 40° C./75% RH, open, 2 weeks): 99.10 Area % | Stability study: Crystal form ([3]; 40° C./75% RH, open): Unchanged | Stability study (purity) ([3]; 60° C., sealed, 1 week): 99.11 Area % | Stability study (purity) ([3]; 60° C., sealed, 2 weeks): 99.11 Area % | Stability study: Crystal form ([3]; 60° C., sealed): Unchanged | 2-week physical and chemical stabilities [3]: good | thermostability of the crystal form [4]: relatively good | difference in the equilibrium solubilities (24 h) between crystal form 1 and crystal form D [1]: no obvious difference | Solubility (based on a compound of formula I) ([1]; Fed-state simulated intestinal fluid (FeSSIF), 30 min): 360 µg/mL | Solubility (based on a compound of formula I) ([1]; Fed-state simulated intestinal fluid (FeSSIF), 2 h): 220 µg/mL | Solubility (based on a compound of formula I) ([1]; Fed-state simulated intestinal fluid (FeSSIF), 4 h): 190 µg/mL | Solubility (based on a compound of formula I) ([1]; Fed-state simulated intestinal fluid (FeSSIF), 24 h): 210 µg/mL | equilibrium solubility (24 h) relative to crystal form 1 of a compound of formula I ([1]; SGF): 2 times | Solubility (based on a compound of formula I) ([1]; Water, 30 min): 1850 µg/mL | Solubility (based on a compound of formula I) ([1]; Water, 2 h): 1780 µg/mL | Solubility (based on a compound of formula I) ([1]; Water, 4 h): 1730 µg/mL | Solubility (based on a compound of formula I) ([1]; Water, 24 h (equilibrium)): 1800 µg/mL | equilibrium solubility (24 h) relative to crystal form 1 of a compound of formula I ([1]; water): 10 times
